Measured values published in patent US10124008B2, “Use of inhibitors of acid sphingomyelinase to treat acquired and inherited retinal degenerations” (Wisconsin Alumni Research Foundation, priority 2014, dated 2018).
“Also recorded” adds a separate entry of the source.

Assays:
primary RPE cells = experiment: Live imaging of tandem fluorescent mRFP-GFP-LC3 (tfLC3), autophagic flux; type: cell-based, porcine; conditions: RPE with A2E; 3 h drug incubation (TO901317 1 μM 20 h)
Description: RPE cells were transfected with EGFP-LC3 or tandem fluorescent mRFP-GFP-LC3 (Addgene) using the AMAXA NUCLEOFECTOR II (Lonza). Approximately 1.5 million cells and 5 μg of plasmid DNA were used for each transfection. Cells were plated either on serum-coated glass-bottom dishes (Mattek) or […] filters at confluence.
Andor IQ2 software was used for image acquisition and Imaris x64 (Bitplane) for image analysis. […] Trafficking data was collected from three separate transfections for a total of at least 12-30 movies captured for treatment. During image acquisition care was taken to maintain the same laser power, exposure and electron-multiplying gain settings. […] After background subtraction (using the background subtraction algorithm and identical automatic threshold for all images) and smoothing (Gaussian algorithm with identical threshold settings for all images), Spots and Tracks algorithms were used to identify vesicles and follow them through time and cell-space to obtain total track length and track displacement.
We used tandem fluorescent mRFP-GFP-LC3 (tfLC3) to monitor autophagy in primary RPE cells in real time.
We performed two initial screens: first, we compared the ability of functional inhibitors (fluoxetine and amitriptyline) with that of the lone structural ASMase inhibitor zoledronic acid in decreasing acetylated tubulin. Here, polarized RPE monolayers with or without A2E were treated with one of the three inhibitors (10 μM, 3 h). Desipramine as a positive control. At the end of the incubation period, cells were fixed and stained for acetylated tubulin, imaged and the amount of acetylated tubulin in the cells was quantified. Second, we evaluated three additional drugs (sertraline, astemizole and fexofenadine) for their abilities to increase autophagy in the RPE. Cells with or without bisretinoids were transfected with mRFP-GFP-LC3, starved to induce autophagy, treated with drugs and imaged as in FIG. 9D.

MHC-II in RPE = experiment: Quantification of MHC-II staining; type: cell-based; conditions: RPE with A2E
ceramide in primary RPE = experiment: Immunofluorescence staining for ceramide; type: cell-based, porcine; conditions: desipramine treatment
Description: ALEXAFLUOR secondary antibodies were used at 1:500 and rhodamine-phalloidin (Cytoskeleton, PHDR1) at 1:200. Filters were mounted under coverslips on glass slides under VECTASHIELD (Vector labs), sealed and visualized with Andor Revolution XD spinning disk confocal microscope using a 60×1.4 NA oil objective with identical exposures and gains for each antibody. Acetylated tubulin-labeled stable microtubules (≥5 μm in length) after nocodazole treatment were analyzed manually in the Surpass mode of Imaris (Bitplane).

[1] = test system: acid sphingomyelinase (ASMase); experiment: ASMase activity in primary RPE (sphingomyelinase fluorimetric assay kit); type: cell-based, porcine; conditions: desipramine 10 μM for 3 hours
Description: Cells were harvested by trypsinization and cell pellets were washed with PBS to remove residual medium. Cells were lysed in HNTG lysis buffer (50 mM Hepes, pH 7.4, 150 mM NaCl, 10% glycerol, 1.5 mM MgCl2, 1% triton X-100) supplemented with protease inhibitors. Total protein was measured using the DC protein assay kit (BioRad). Cellular cholesterol was quantified using the Amplex Red cholesterol assay kit (INVITROGEN) as detailed previously (Lakkaraju et al., 2007). Single eyecups from wild-type and ABCA4^−/− mice were homogenized in 50 μl of lysis buffer and processed as above. For measuring acid sphingomyelinase activity, cells were lysed in acidic pH and assays were performed using the sphingomyelinase fluorimetric assay kit from Cayman Chemicals according to the manufacturer's protocol.

[2] = test system: LC3B-II and p62 in primary RPE monolayers; experiment: Immunoblotting of LC3B-II and p62 in polarized primary RPE monolayers; type: cell-based, porcine; conditions: A2E-laden RPE after mTOR inhibition; TO901317 1 μM 20 h, desipramine 10 μM 3 h
Description: RPE harvested from mouse eyecups were sonicated in lysis buffer with protease inhibitors for 10 min. Primary RPE on TRANSWELL filters were harvested and lysed with NE-PER nuclear and cytoplasmic extraction reagents (Thermo Scientific #78833) according to the manufacturer's recommendation. Protein concentrations were measured with DC assay (BioRad). […] Proteins were then transferred onto nitrocellulose membrane using IBLOT dry transfer system (INVITROGEN), blocked in 5% milk in TBS-T for 1 hour before incubating in primary antibody overnight at 4° C. Membranes were probed with antibodies to LC3B (1:3000, Novus NB600-1384 for pig and 1:500, Sigma L7543 for mouse), p62/SQSTM1 (1:1000, ARP03-GP62-C) and actin (1:5000, Santa Cruz) followed by horseradish peroxidase-conjugated secondary antibodies. Immunoblots were visualized by ECL substrate (Thermo Scientific) and quantified using Image Studio (LI-COR). […] Other drugs used were the mTOR inhibitors Torin 1 and Torin 2 (50 nM and 1.5 μM, respectively, for 2 h, TOCRIS), the vacuolar ATPase inhibitor bafilomycin A1 (100 nM for 2 h, EMD Millipore), the LXRα agonist TO901317 (1 μM for 20 h, Cayman Chemicals), the HDAC6 inhibitor trichostatin A (TSA, 500 nM, 16 h, Sigma) and the ASMase inhibitor desipramine (10 μM for 3 h, Sigma). To depolymerize MTs, cells were treated with 33 μM nocodazole for 30 minutes, followed by cold-treatment (4° C.) for 30 minutes (Kreitzer et al., 2003). At the concentrations and exposure times used, none of these drugs caused alterations in RPE cell morphology or physiology (monitored by TER measurements, ZO-1 and organelle marker staining). […] Conversion of LC3B-I to its lipidated form (LC3B-II) is an indicator of autophagosome biogenesis and p62 levels are a measure of autophagic flux (Klionsky et al., 2012).

SMILES: CNCCCN1c2ccccc2CCc2ccccc21 [desipramine]
- autophagic flux / autophagosome-lysosome fusion (tfLC3 EGFP:mRFP) (primary RPE cells): corrected defects in autophagosome-lysosome fusion; also recorded: completely reversed the autophagic block induced by A2E
- MHC-II protein levels (MHC-II in RPE): decreased MHC-II protein levels
- ceramide levels (ceramide in primary RPE): decreased ASMase activity and ceramide levels
- ASMase activity [1]: decreased ASMase activity and ceramide levels
- LC3B-II levels / autophagosome biogenesis (immunoblot) [2]: increased LC3B-II levels in RPE with A2E comparable to those in control cells
- p62 levels / autophagic flux (immunoblot) [2]: decreased p62 levels in cells with A2E
